Laboratory results as given in EPA's ToxRefDB 2.

How the values were obtained:
rat [1] = details: Subchronic oral toxicity in rodents, fischer, Gavage/Intubation, dose end: 13 week, group: systemic, systemic / pathology microscopic / kidney / degeneration
rat [2] = details: Subchronic inhalation toxicity, fischer, Whole-Body, dose end: 13 week, group: systemic
mouse [3] = details: Combined chronic toxicity/carcinogenicity, other, Inhalation, Whole-Body, dose end: 24 month, group: systemic
mouse [4] = details: Subchronic oral toxicity in rodents, B6C3F1, Gavage/Intubation, dose end: 13 week, group: systemic, systemic / pathology microscopic / liver / cytomegaly
mouse [5] = details: Subchronic oral toxicity in rodents, b6c3f1, Gavage/Intubation, dose end: 13 week, group: systemic, systemic / pathology microscopic / liver / [other] + systemic / pathology microscopic / liver / cytomegaly + systemic / pathology …
rat [6] = details: Combined chronic toxicity/carcinogenicity, fischer, Inhalation, Whole-Body, dose end: 24 month, group: systemic
mouse [7] = details: Carcinogenicity; b6c3f1; Oral; Gavage/Intubation; dose end: 103 week; group: systemic; systemic / pathology microscopic / kidney / [other] + systemic / pathology microscopic / kidney / degeneration + systemic / pathology …
rat [8] = details: Carcinogenicity; fischer; Oral; Gavage/Intubation; dose end: 2 year; group: systemic; systemic / pathology microscopic / kidney / casts + systemic / pathology microscopic / kidney / degeneration + systemic / pathology …
mouse [9] = details: Subchronic inhalation toxicity, other, Whole-Body, dose end: 13 week, group: systemic
rat [10] = details: Prenatal developmental toxicity study, sprague dawley, Oral, Gavage/Intubation, dose end: 15 GD
rat [11] = details: Subchronic oral toxicity in rodents, fischer, Gavage/Intubation, dose end: 13 week, group: systemic, systemic / in life observation / body weight / body weight gain + systemic / pathology microscopic / kidney / [other] + systemic / pathology…
mouse [12] = details: Carcinogenicity, b6c3f1, Oral, Feed, dose end: 80 week, group: systemic
rat [13] = details: Developmental neurotoxicity study; fischer; Oral; Feed; dose end: 114 PND; group: cannot be grouped; systemic / in life observation / body weight / offspring (pup) weight
rat [14] = details: Developmental neurotoxicity study; fischer; Injection; Subcutaneous; dose end: 21 PND; group: cannot be grouped; systemic / in life observation / body weight / offspring (pup) weight + systemic / in life observation / clinical signs / tremors
rat [15] = details: Subchronic oral toxicity in rodents, other, Feed, dose end: 13 week
rat [16] = details: Carcinogenicity; other; Oral; Feed; dose end: 80 week; group: systemic; systemic / in life observation / body weight / body weight + systemic / in life observation / clinical signs / anemia + systemic / in life …
mouse [17] = details: Sub-acute repeat dose toxicity, b6c3f1, Oral, Gavage/Intubation, dose end: 16 day, group: systemic
rat [18] = details: Combined chronic toxicity/carcinogenicity; fischer; Oral; Gavage/Intubation; dose end: 103 week; group: systemic; systemic / in life observation / clinical signs / lethargy + systemic / pathology microscopic / stomach / inflammation + systemic / …
rat [19] = details: Multigenerational reproductive toxicity study, sprague dawley, Oral, Feed, dose end: 2 generation
rat [20] = details: Subchronic oral toxicity in rodents, fischer, Gavage/Intubation, dose end: 13 week, group: systemic
mouse [21] = details: Carcinogenicity, b6c3f1, Oral, Gavage/Intubation, dose end: 103 week, group: systemic
rat [22] = details: Sub-acute repeat dose toxicity; fischer; Oral; Gavage/Intubation; dose end: 16 day; group: systemic; systemic / in life observation / body weight / body weight gain
mouse [23] = details: Subchronic oral toxicity in rodents, b6c3f1, Gavage/Intubation, dose end: 13 week, group: systemic
[24] = systemic / in life observation / body weight / body weight
[25] = systemic / pathology microscopic / liver / hepatoblastoma + systemic / pathology microscopic / liver / hepatocellular adenoma + systemic / …
[26] = systemic / organ weight / liver / absolute + systemic / organ weight / liver / relative to body weight + systemic / pathology microscopic / …
[27] = systemic / in life observation / body weight / body weight + systemic / organ weight / liver / relative to body weight
[28] = group: developmental, developmental / developmental malformation / bone / supernumerary + systemic / in life observation / body weight / fetal weight
[29] = group: maternal, systemic / in life observation / body weight / body weight gain + systemic / in life observation / food consumption / food consumption
[30] = systemic / pathology microscopic / liver / hyperplasia
[31] = systemic / pathology microscopic / liver / hyperplasia + systemic / pathology microscopic / liver / hepatocellular carcinoma + systemic / in…
[32] = group: maternal, reproductive / reproductive performance / mating / mating
[33] = group: systemic, systemic / organ weight / kidney / absolute + systemic / organ weight / kidney / relative to body weight + systemic / organ weight / liver…
[34] = systemic / in life observation / clinical signs / lethargy + systemic / in life observation / mortality / mortality
[35] = group: offspring, systemic / in life observation / body weight / offspring (pup) weight
[36] = group: parental, systemic / in life observation / body weight / body weight + systemic / in life observation / body weight / body weight gain + systemic / …
[37] = group: parental, systemic / organ weight / kidney / relative to body weight
[38] = systemic / organ weight / liver / absolute + systemic / organ weight / liver / relative to body weight
[39] = systemic / in life observation / clinical signs / lethargy + systemic / in life observation / body weight / body weight
[40] = systemic / in life observation / clinical signs / lethargy + systemic / in life observation / body weight / body weight + systemic / …
[41] = systemic / in life observation / clinical signs / fur (altered appearance) + systemic / in life observation / clinical signs / lethargy
[42] = systemic / in life observation / clinical signs / fur (altered appearance) + systemic / in life observation / clinical signs / lethargy + …

SMILES: Clc1ccc(Cl)cc1 [1,4-Dichlorobenzene]
- LEL (rat [1]): 300 mg/kg/day
- LOAEL (rat [1]): 300 mg/kg/day
- NEL (rat [1]): 150 mg/kg/day
- NOAEL (rat [1]): 150 mg/kg/day
- LEL (rat [2]; [24]): 25 ppm
- NEL (rat [2]; [24]): < 25 ppm
- NOAEL (rat [2]; systemic / in life observation / body weight / body weight + systemic / organ weight / kidney / absolute + systemic / organ weight / kidney…): 120 ppm
- LOAEL (rat [2]; systemic / organ weight / kidney / absolute + systemic / organ weight / kidney / relative to body weight + systemic / pathology microscopic…): 270 ppm
- LOAEL (mouse [3]; [25]): > 300 ppm
- NOAEL (mouse [3]; [25]): ≥ 300 ppm
- NEL (mouse [3]; systemic / pathology microscopic / liver / hepatoblastoma + systemic / pathology microscopic / liver / hepatocellular carcinoma + systemic…): 20 ppm
- LEL (mouse [3]; systemic / pathology microscopic / nose / metaplasia): 75 ppm
- LEL (mouse [4]): 675 mg/kg/day
- LOAEL (mouse [4]): 675 mg/kg/day
- NEL (mouse [4]): 338 mg/kg/day
- NOAEL (mouse [4]): 338 mg/kg/day
- LEL (mouse [5]): 600 mg/kg/day
- LOAEL (mouse [5]): 600 mg/kg/day
- NEL (mouse [5]): < 600 mg/kg/day
- NOAEL (mouse [5]): < 600 mg/kg/day
- LOAEL (rat [6]; [26]): > 300 ppm
- NEL (rat [6]; [26]): 20 ppm
- NOAEL (rat [6]; [26]): ≥ 300 ppm
- LEL (rat [6]; systemic / pathology microscopic / nose / [other]): 75 ppm
- LEL (mouse [7]): 300 mg/kg/day
- LOAEL (mouse [7]): 300 mg/kg/day
- NEL (mouse [7]): < 300 mg/kg/day
- NOAEL (mouse [7]): < 300 mg/kg/day
- LEL (rat [8]): 150 mg/kg/day
- LOAEL (rat [8]): 150 mg/kg/day
- NEL (rat [8]): < 150 mg/kg/day
- NOAEL (rat [8]): < 150 mg/kg/day
- LEL (mouse [9]; [27]): 25 ppm
- NEL (mouse [9]; [27]): < 25 ppm
- NOAEL (mouse [9]; systemic / organ weight / liver / absolute + systemic / organ weight / liver / relative to body weight + systemic / clinical chemistry / …): 120 ppm
- LOAEL (mouse [9]; systemic / organ weight / liver / relative to body weight + systemic / organ weight / liver / absolute + systemic / pathology microscopic / …): 270 ppm
- LEL (rat [10]; group: developmental, developmental / developmental malformation / bone / supernumerary): 500 mg/kg/day
- LOAEL (rat [10]; [28]): > 1000 mg/kg/day
- NEL (rat [10]; [28]): 250 mg/kg/day
- NOAEL (rat [10]; [28]): ≥ 1000 mg/kg/day
- LEL (rat [10]; [29]): 500 mg/kg/day
- LOAEL (rat [10]; [29]): > 1000 mg/kg/day
- NEL (rat [10]; [29]): 250 mg/kg/day
- NOAEL (rat [10]; [29]): ≥ 1000 mg/kg/day
- LEL (rat [11]): 300 mg/kg/day
- LOAEL (rat [11]): 300 mg/kg/day
- NEL (rat [11]): < 300 mg/kg/day
- NOAEL (rat [11]): < 300 mg/kg/day

SMILES: O=C1C2(Cl)C3(Cl)C4(Cl)C(Cl)(Cl)C5(Cl)C3(Cl)C1(Cl)C5(Cl)C24Cl (centres undefined) [Kepone]
- LOAEL (mouse [12]; [30]): 3 mg/kg/day
- NOAEL (mouse [12]; [30]): < 3 mg/kg/day
- LEL (mouse [12]; [31]): 3 mg/kg/day
- NEL (mouse [12]; [31]): < 3 mg/kg/day
- LEL (rat [13]): 0.05 mg/kg/day
- LOAEL (rat [13]): > 0.3 mg/kg/day
- NEL (rat [13]): < 0.05 mg/kg/day
- NOAEL (rat [13]): ≥ 0.3 mg/kg/day
- LEL (rat [14]): 1 mg/kg/day
- LOAEL (rat [14]): > 1 mg/kg/day
- NEL (rat [14]): < 1 mg/kg/day
- NOAEL (rat [14]): ≥ 1 mg/kg/day
- LEL (rat [15]; [32]): 1.25 mg/kg/day
- LOAEL (rat [15]; [32]): > 1.25 mg/kg/day
- NEL (rat [15]; [32]): < 1.25 mg/kg/day
- NOAEL (rat [15]; [32]): ≥ 1.25 mg/kg/day
- LEL (rat [15]; [33]): 1.25 mg/kg/day
- LOAEL (rat [15]; [33]): > 1.25 mg/kg/day
- NEL (rat [15]; [33]): < 1.25 mg/kg/day
- NOAEL (rat [15]; [33]): ≥ 1.25 mg/kg/day
- LEL (rat [16]): 0.4 mg/kg/day
- LOAEL (rat [16]): 0.4 mg/kg/day
- NEL (rat [16]): < 0.4 mg/kg/day
- NOAEL (rat [16]): < 0.4 mg/kg/day

SMILES: S=c1[nH]c2ccccc2s1 [2-Mercaptobenzothiazole]
- LOAEL (mouse [17]; systemic / in life observation / clinical signs / lethargy): 1500 mg/kg/day
- LEL (mouse [17]; [34]): 1500 mg/kg/day
- NEL (mouse [17]; [34]): 750 mg/kg/day
- NOAEL (mouse [17]; [34]): 750 mg/kg/day
- LEL (rat [18]): 188 mg/kg/day
- LOAEL (rat [18]): 188 mg/kg/day
- NEL (rat [18]): < 188 mg/kg/day
- NOAEL (rat [18]): < 188 mg/kg/day
- LEL (rat [19]; [35]): 194 mg/kg/day
- LOAEL (rat [19]; [35]): 194 mg/kg/day
- NEL (rat [19]; [35]): < 194 mg/kg/day
- NOAEL (rat [19]; [35]): < 194 mg/kg/day
- LOAEL (rat [19]; [36]): 695 mg/kg/day
- NOAEL (rat [19]; [36]): 194 mg/kg/day
- LEL (rat [19]; [37]): 218 mg/kg/day
- NEL (rat [19]; [37]): < 218 mg/kg/day
- LOAEL (rat [20]; systemic / in life observation / body weight / body weight gain + systemic / in life observation / clinical signs / irritability): 750 mg/kg/day
- LEL (rat [20]; [38]): 188 mg/kg/day
- NEL (rat [20]; [38]): < 188 mg/kg/day
- NOAEL (rat [20]; systemic / organ weight / liver / absolute + systemic / organ weight / liver / relative to body weight + systemic / in life observation / …): 375 mg/kg/day
- LOAEL (mouse [21]; [39]): 375 mg/kg/day
- NOAEL (mouse [21]; [39]): < 375 mg/kg/day
- LEL (mouse [21]; [40]): 375 mg/kg/day
- NEL (mouse [21]; [40]): < 375 mg/kg/day
- LEL (rat [22]): 2500 mg/kg/day
- LOAEL (rat [22]): > 2500 mg/kg/day
- NEL (rat [22]): 1250 mg/kg/day
- NOAEL (rat [22]): ≥ 2500 mg/kg/day
- LEL (mouse [23]; [41]): 375 mg/kg/day
- LOAEL (mouse [23]; [41]): 375 mg/kg/day
- NEL (mouse [23]; [42]): 188 mg/kg/day
- NOAEL (mouse [23]; [42]): 188 mg/kg/day
